Test system: pyramidal neurons of the hippocampal CA3 subfield
Assay: Traumatic brain injury: delayed apoptotic neuronal death, neuronal densities in CA3 hippocampus
Assay type: in vivo, Adult Wistar rats
Conditions: for Neuronal densities CA3 hippocampus: traumatized right side, ± SEM
Experimental: 1. Traumatic Brain Injury: Delayed Apoptotic Neuronal Death
Contusing device. The contusing device consisted of a stainless steel tube, 40 cm in length, perforated at 1 cm intervals to prevent air compression in the tube. Adult Wistar rats, 230-270 g, were anesthetized with chloral hydrate, 400 mg/kg i.p., a craniotomy over the right hemisphere was made, the device guiding a falling weight onto the footplate resting upon the surface of the dura was placed perpendicular to the surface of the skull, and a force of 380 g×cm produced by a 20 g weight was selected to produce brain contusion. A maximum of 2.5 mm depression of the brain surface was allowed to avoid mechanical puncture of the dura. The center of the footplate was stereotaxically positioned 1.5 mm posterior and 2.5 mm lateral to the bregma. The rats underwent perfusion fixation 3 days after brain injury with a solution containing 4% paraformaldehyde in phosphate buffer.
Intracerebroventricular injections: Compounds were administered intracerebroventricularly (=i.c.v.) by means of a Hamilton syringe in a volume of 5-15 μl. Injections were performed over 5 min, 15 min-8 hrs after trauma using the following stereotaxic coordinates: AP=−0.5 mm, L=−2 mm and V=−5.5 in relation to bregma (Swanson, L. W. (1992) Brain Maps: Structure of the Rat Brain, Elsevier, Amsterdam).
Morphometric analysis in hippocampus. The damage in the hippocampal CA3 subfield was determined stereologically at 5 different rostrocaudal levels extending from 10.21 to 11.21 mm (Swanson, L. W. (1992) Brain Maps Structure of the Rat Brain, Elsevier, Amsterdam) and throughout its mediolateral axis three days after traumatic injury. To quantitatively assess neuronal loss in the hippocampus, stereological disector technique (Cruz-Orive, L. M. & Weibel, E. R. (1990) Am. J. Physiol. 258, L148-L156) was used to estimate numerical density (Nv) of pyramidal neurons. An unbiased counting frame (0.05 mm×0.05 mm; disector height 0.01 mm) and a high-aperture objective (×40) were used for sampling. Normal neurons were identified by the presence of the typical nuclei with clear nucleoplasm and distinct nucleolus surrounded by cytoplasm containing Nissl substance. The border between CA2 and CA3 subfields was considered as the point where the looser arrangement of large pyramidal cells goes into densely packed pyramidal cells of the subfield CA3. An arbitrary line connecting the lateral ends of the dentate granule cell layers was considered a junction between subfields CA3 and CA4.
Dose response of the neuroprotective effect of the test substance of Example 3 when administered i.c.v. 15 min after trauma to adult Wistar rats was measured. Neuronal densities were determined in the CA3 hippocampal subfield as described in the methods. Densities of CA3 neurons ±Standard Error of […] (=SEM) in 6 stereotactic levels in the left non-traumatized side of vehicle treated rats and the traumatized right side of vehicle treated rats and in rats treated with the test substance of Example 3 were measured and the results listed in table 6 below.
The time window of the neuroprotective effect of test substance of Example 3 when administered i.c.v. 2, 4 or 8 hrs after trauma to adult Wistar rats was measured. Neuronal densities were determined in the CA3 hippocampal subfield as described in the methods. Densities of CA3 neurons ±SEM in 6 stereotactic levels in the traumatized right side of rats treated with either vehicle or the test compound of Example 3 were measured and the results listed in table 7 below.

CC(C)NC(=O)CC(CC1(C(=O)N[C@H]2CCc3ccccc3N(CC(=O)O)C2=O)CCCC1)C(=O)O (stereo in doubt) [Example 3, (2″rel1″)-2-{[(3S)-1-({[1-(carboxymethyl)-2-oxo-2,3,4,5-tetrahydro-1H-1-benzazepin-3-yl]amino}-carbonyl)cyclopentyl]methyl}-4-(isopropylamino)-4-oxobutyric acid]
Neuronal densities CA3 hippocampus (3 μg i.c.v. 15 min after trauma, stereotactic level 10.21): 98.40 ± 4.39 cells × 10^3/mm^3 | Neuronal densities CA3 hippocampus (3 μg i.c.v. 15 min after trauma, stereotactic level 10.41): 89.00 ± 5.05 cells × 10^3/mm^3 | Neuronal densities CA3 hippocampus (3 μg i.c.v. 15 min after trauma, stereotactic level 10.61): 72.80 ± 6.01 cells × 10^3/mm^3 | Neuronal densities CA3 hippocampus (3 μg i.c.v. 15 min after trauma, stereotactic level 10.81): 84.20 ± 6.47 cells × 10^3/mm^3 | Neuronal densities CA3 hippocampus (3 μg i.c.v. 15 min after trauma, stereotactic level 11.01): 86.00 ± 7.44 cells × 10^3/mm^3 | Neuronal densities CA3 hippocampus (3 μg i.c.v. 15 min after trauma, stereotactic level 11.21): 95.40 ± 6.96 cells × 10^3/mm^3 | effect on hippocampal neuronal loss (10 μg i.c.v. 2, 4 or 8 hrs after trauma, P<0.001 at 2 and 4 hrs, P<0.01 for 8 hrs): partially prevented hippocampal neuronal loss | Neuronal densities CA3 hippocampus (10 μg i.c.v. 15 min after trauma, stereotactic level 10.21): 108.60 ± 4.30 cells × 10^3/mm^3 | Neuronal densities CA3 hippocampus (10 μg i.c.v. 15 min after trauma, stereotactic level 10.41): 108.60 ± 5.34 cells × 10^3/mm^3 | Neuronal densities CA3 hippocampus (10 μg i.c.v. 15 min after trauma, stereotactic level 10.61): 111.40 ± 7.09 cells × 10^3/mm^3 | Neuronal densities CA3 hippocampus (10 μg i.c.v. 15 min after trauma, stereotactic level 10.81): 112.00 ± 6.42 cells × 10^3/mm^3 | Neuronal densities CA3 hippocampus (10 μg i.c.v. 15 min after trauma, stereotactic level 11.01): 111.40 ± 7.11 cells × 10^3/mm^3 | Neuronal densities CA3 hippocampus (10 μg i.c.v. 15 min after trauma, stereotactic level 11.21): 119.20 ± 3.70 cells × 10^3/mm^3 | Neuronal densities CA3 hippocampus (10 μg i.c.v. 2 hrs after trauma, stereotactic level 10.21): 72.30 ± 4.80 cells × 10^3/mm^3 | Neuronal densities CA3 hippocampus (10 μg i.c.v. 2 hrs after trauma, stereotactic level 10.41): 68.10 ± 6.30 cells × 10^3/mm^3 | Neuronal densities CA3 hippocampus (10 μg i.c.v. 2 hrs after trauma, stereotactic level 10.61): 60.80 ± 5.60 cells × 10^3/mm^3 | Neuronal densities CA3 hippocampus (10 μg i.c.v. 2 hrs after trauma, stereotactic level 10.81): 60.20 ± 9.40 cells × 10^3/mm^3 | Neuronal densities CA3 hippocampus (10 μg i.c.v. 2 hrs after trauma, stereotactic level 11.01): 63.00 ± 11.70 cells × 10^3/mm^3 | Neuronal densities CA3 hippocampus (10 μg i.c.v. 2 hrs after trauma, stereotactic level 11.21): 67.70 ± 14.00 cells × 10^3/mm^3 | Neuronal densities CA3 hippocampus (10 μg i.c.v. 4 hrs after trauma, stereotactic level 10.21): 72.20 ± 5.70 cells × 10^3/mm^3 | Neuronal densities CA3 hippocampus (10 μg i.c.v. 4 hrs after trauma, stereotactic level 10.41): 65.90 ± 8.80 cells × 10^3/mm^3 | Neuronal densities CA3 hippocampus (10 μg i.c.v. 4 hrs after trauma, stereotactic level 10.61): 63.00 ± 6.30 cells × 10^3/mm^3 | Neuronal densities CA3 hippocampus (10 μg i.c.v. 4 hrs after trauma, stereotactic level 10.81): 60.50 ± 10.50 cells × 10^3/mm^3 | Neuronal densities CA3 hippocampus (10 μg i.c.v. 4 hrs after trauma, stereotactic level 11.01): 62.20 ± 13.50 cells × 10^3/mm^3 | Neuronal densities CA3 hippocampus (10 μg i.c.v. 4 hrs after trauma, stereotactic level 11.21): 66.30 ± 15.90 cells × 10^3/mm^3 | Neuronal densities CA3 hippocampus (10 μg i.c.v. 8 hrs after trauma, stereotactic level 10.21): 62.00 ± 4.90 cells × 10^3/mm^3 | Neuronal densities CA3 hippocampus (10 μg i.c.v. 8 hrs after trauma, stereotactic level 10.41): 53.00 ± 6.44 cells × 10^3/mm^3 | Neuronal densities CA3 hippocampus (10 μg i.c.v. 8 hrs after trauma, stereotactic level 10.61): 53.00 ± 6.00 cells × 10^3/mm^3 | Neuronal densities CA3 hippocampus (10 μg i.c.v. 8 hrs after trauma, stereotactic level 10.81): 52.50 ± 4.48 cells × 10^3/mm^3 | Neuronal densities CA3 hippocampus (10 μg i.c.v. 8 hrs after trauma, stereotactic level 11.01): 61.80 ± 4.48 cells × 10^3/mm^3 | Neuronal densities CA3 hippocampus (10 μg i.c.v. 8 hrs after trauma, stereotactic level 11.21): 65.90 ± 4.90 cells × 10^3/mm^3 | Neuronal densities CA3 hippocampus (30 μg i.c.v. 15 min after trauma, stereotactic level 10.21): 108.40 ± 3.15 cells × 10^3/mm^3 | Neuronal densities CA3 hippocampus (30 μg i.c.v. 15 min after trauma, stereotactic level 10.41): 105.20 ± 5.76 cells × 10^3/mm^3 | Neuronal densities CA3 hippocampus (30 μg i.c.v. 15 min after trauma, stereotactic level 10.61): 94.20 ± 5.10 cells × 10^3/mm^3 | Neuronal densities CA3 hippocampus (30 μg i.c.v. 15 min after trauma, stereotactic level 10.81): 83.20 ± 7.10 cells × 10^3/mm^3 | Neuronal densities CA3 hippocampus (30 μg i.c.v. 15 min after trauma, stereotactic level 11.01): 80.20 ± 7.45 cells × 10^3/mm^3 | Neuronal densities CA3 hippocampus (30 μg i.c.v. 15 min after trauma, stereotactic level 11.21): 90.00 ± 9.24 cells × 10^3/mm^3 | effect on hippocampal neuronal loss (3, 10 or 30 μg i.c.v. 15 min after trauma, ANOVA P<0.001 for all three doses): partially prevented hippocampal neuronal loss | neuroprotective effect (time window) (administered i.c.v. up to 8 hrs after trauma): neuroprotective effect was still evident | neuroprotective effect (dose response) (i.c.v. after trauma): dose-dependent neuroprotective effect | most effective dose against hippocampal neuronal loss (of 3, 10 or 30 μg i.c.v. 15 min after trauma): 10 µg

From patent US20080085889A1, “Amidomethyl-Substituted 1-(Carboxyalkyl) Cyclopentyl-Carbonylamino-Benzazepine-N-Acetic Acid Compounds, Process and Intermediate Products for Their Preparation and Pharmaceutical Compositions Containing Them” (SOLVAY PHARMACEUTICALS GmbH, priority 2003, published 2008)
